Laboratory results reported in ChEMBL document CHEMBL3994611, “Synthesis and biological evaluation of deferiprone-resveratrol hybrids as antioxidants, Aβ1-42 aggregation inhibitors and metal-chelating agents for Alzheimer's disease” (Eur J Med Chem, 2017).
Active and inactive are the calls of the source. The rule behind the calls is not given here.

Assays:
[1] = target: T1, Amyloid-beta precursor protein (Homo sapiens, UniProt P05067); experiment: Inhibition of HFIP-pretreated amyloid beta (1 to 42) (unknown origin) self-induced aggregation at 20 uM incubated for 24 hrs under dark condition by thioflavin-T based fluorometric assay relative to control
T1 sequence (P05067 whole entry): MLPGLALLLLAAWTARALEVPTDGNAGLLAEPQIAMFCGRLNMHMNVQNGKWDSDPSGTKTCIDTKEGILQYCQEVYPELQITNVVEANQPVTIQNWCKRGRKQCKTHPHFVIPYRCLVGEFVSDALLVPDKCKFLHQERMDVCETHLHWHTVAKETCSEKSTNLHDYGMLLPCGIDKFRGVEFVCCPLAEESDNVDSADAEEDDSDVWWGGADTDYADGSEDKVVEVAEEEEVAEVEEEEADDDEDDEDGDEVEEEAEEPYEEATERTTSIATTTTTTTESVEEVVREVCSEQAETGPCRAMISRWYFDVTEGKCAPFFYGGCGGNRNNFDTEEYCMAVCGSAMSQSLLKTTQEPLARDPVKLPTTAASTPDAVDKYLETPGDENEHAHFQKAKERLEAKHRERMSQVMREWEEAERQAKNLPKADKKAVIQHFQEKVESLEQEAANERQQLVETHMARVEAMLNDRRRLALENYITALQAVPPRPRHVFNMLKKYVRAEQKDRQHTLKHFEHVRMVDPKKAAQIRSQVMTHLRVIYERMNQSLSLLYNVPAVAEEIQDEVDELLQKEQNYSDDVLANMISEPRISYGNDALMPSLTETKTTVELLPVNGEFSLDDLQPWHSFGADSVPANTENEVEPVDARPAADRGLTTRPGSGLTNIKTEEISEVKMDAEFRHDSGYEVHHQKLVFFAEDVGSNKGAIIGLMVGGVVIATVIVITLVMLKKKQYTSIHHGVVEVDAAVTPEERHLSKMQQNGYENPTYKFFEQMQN

[2] = Binding affinity to CP645 probe-labeled Fe3+ in DMSO/MOPS buffer assessed as concentration of free Fe3+ in solution at 60 uM after 48 hrs by spectrofluorophotometric method
[3] = Antioxidant activity assessed as ABTS radical scavenging activity incubated for 10 mins under dark condition; assay type: functional
[4] = Binding affinity to Cu2+ assessed as disaggregation of Cu2+-induced amyloid beta (1 to 42) aggregation at 75 uM incubated for 24 hrs under dark condition by uranyl acetate staining based transmission electron microscopic method
[5] = (§1) Binding affinity to Cu2+ assessed as disaggregation of Cu2+-induced amyloid beta (1 to 42) aggregation by measuring Cu2+-amyloid beta (1 to 42) complex fluorescence at 75 uM treated 24 hrs after Cu2+ addition measured after 24 hrs incubation under dark condition by thioflavin-T based fluorometric assay relative to control
[6] = as §1, with “Fe3+” for “Cu2+”, “Fe3+-induced” for “Cu2+-induced”, “Fe3+-amyloid” for “Cu2+-amyloid”, “50” for “75”
[7] = Binding affinity to Cu2+ assessed as inhibition of Cu2+-induced amyloid beta (1 to 42) aggregation by measuring Cu2+-amyloid beta (1 to 42) complex fluorescence at 75 uM incubated for 24 hrs under dark condition by thioflavin-T based fluorometric assay relative to control; parameters: scale not given: the % may be the effect or the level left
[8] = Binding affinity to Fe3+ assessed as inhibition of Fe3+-induced amyloid beta (1 to 42) aggregation by measuring Fe3+-amyloid beta (1 to 42) complex fluorescence at 50 uM incubated for 24 hrs under dark condition by thioflavin-T based fluorometric assay relative to control; parameters: scale not given: the % may be the effect or the level left
[9] = Binding affinity to Fe3+ assessed as disaggregation of Fe3+-induced amyloid beta (1 to 42) aggregation at 50 uM incubated for 24 hrs under dark condition by uranyl acetate staining based transmission electron microscopic method
[10] = target: T1, Amyloid-beta precursor protein; experiment: Inhibition of HFIP-pretreated amyloid beta (1 to 42) (unknown origin) self-induced aggregation incubated for 24 hrs under dark condition by thioflavin-T based fluorometric assay
[11] = Binding affinity to Fe3+ in DMSO/MOPS buffer assessed as maximal absorbance intensity at iron to ligand ratio of 1:4 by UV-visible spectrophotometric method
[12] = Binding affinity to Cu2+ assessed as inhibition of Cu2+-induced amyloid beta (1 to 42) aggregation at 75 uM incubated for 24 hrs under dark condition by uranyl acetate staining based transmission electron microscopic method
[13] = Binding affinity to Fe3+ assessed as inhibition of Fe3+-induced amyloid beta (1 to 42) aggregation at 50 uM incubated for 24 hrs under dark condition by uranyl acetate staining based transmission electron microscopic method
[14] = Binding affinity to Fe3+ assessed as cumulative stability constant
[15] = Binding affinity to Cu2+ assessed as cumulative stability constant
[16] = Binding affinity to Zn2+ assessed as cumulative stability constant

Structure (SMILES)	inhibition [1]	log free Fe3+ concentration [2]	IC50 [3]	IC50 [10]	also measured
O=c1cc(/C=C/c2ccccc2)[nH]cc1O	38.2%	-21	4.03 µM		
Oc1ccc(/C=C/c2cc(O)cc(O)c2)cc1 [RESVERATROL]			0.76 µM		Activity [4]: Active; Activity [5]: 35%; Activity [6]: 58%; Activity [7]: 86%; Activity [8]: 87%; Activity [9]: Active
Cn1cc(O)c(=O)cc1/C=C/c1ccc([N+](=O)[O-])cc1		-18.4	19.2 µM		
O=c1cc(/C=C/c2ccccc2O)[nH]cc1O	49.3%	-20.2	2.21 µM	21.8 µM	
COc1cc(/C=C/c2cc(=O)c(O)c[nH]2)cc(OC)c1	35.3%	-21.6	11.4 µM		
COc1ccccc1/C=C/c1cc(=O)c(O)c[nH]1	54.9%	-20.2	6.74 µM	16.5 µM	
Cn1cc(O)c(=O)cc1/C=C/c1cccc(F)c1	52.4%	-20.1	1.31 µM	19.4 µM	
COc1cc(/C=C/c2cc(=O)c(O)cn2C)cc(OC)c1	28.3%	-21.2	3.74 µM		
O=c1cc(/C=C/c2cc(O)cc(O)c2)[nH]cc1O	18.2%	-19.2	0.88 µM		
O=c1cc(/C=C/c2ccc([N+](=O)[O-])cc2)[nH]cc1O		-19.5	4.79 µM		
Cn1cc(O)c(=O)cc1/C=C/c1ccc(O)cc1	52.5%	-20.1	1.37 µM	15.4 µM	
O=c1cc(/C=C/c2ccc(O)cc2)[nH]cc1O	58.4%	-19.6	1.73 µM	10.7 µM	Activity [4]: Active; Activity [5]: 69%; Activity [11]: Active; Activity [6]: 25%; Activity [12]: Active; Activity [13]: Active; Activity [7]: 65%; Activity [8]: 62%; Activity [9]: Active
CCOc1ccc(/C=C/c2cc(=O)c(O)cn2C)cc1	65.3%	-19	4.02 µM	8.94 µM	Activity [4]: Active; Activity [5]: 47%; Activity [6]: 16%; Activity [12]: Active; Activity [13]: Active; Activity [7]: 57%; Activity [8]: 64%; Activity [9]: Active
CN(C)c1ccc(/C=C/c2cc(=O)c(O)cn2C)cc1	44.9%	-19.2	2.52 µM		
Cc1c(O)c(=O)ccn1C		-20.6			K [14]: 37.2; K [15]: 21.7; K [16]: 13.5
Cn1cc(O)c(=O)cc1/C=C/c1ccc(Cl)cc1	14.5%	-20.8	5.72 µM		
Cn1cc(O)c(=O)cc1/C=C/c1cc(O)cc(O)c1	22.4%	-20.1	1.19 µM		
O=c1cc(/C=C/c2ccc(Cl)cc2)[nH]cc1O	11.6%	-19.5	11.5 µM		
Cn1cc(O)c(=O)cc1/C=C/c1ccccc1	21.6%	-19.8	2.11 µM		
O=c1cc(/C=C/c2cccc(F)c2)[nH]cc1O	53.2%	-20.2	6.29 µM	19 µM	
CCOc1ccc(/C=C/c2cc(=O)c(O)c[nH]2)cc1	51.5%	-20.1	8.12 µM	23.4 µM	
CN(C)c1ccc(/C=C/c2cc(=O)c(O)c[nH]2)cc1	49.6%	-20.1	3.41 µM	29.2 µM	
Cc1c(C)c2c(c(C)c1O)CCC(C)(C(=O)O)O2 (stereo not drawn) [TROLOX]			3.89 µM		
COc1ccccc1/C=C/c1cc(=O)c(O)cn1C	56.8%	-20.6	4.17 µM	12.5 µM	
Cn1cc(O)c(=O)cc1/C=C/c1ccccc1O	31.1%	-20.3	1.83 µM		
